Assay results from publication PMC8956739, “A synthetic lipopeptide targeting top-priority multidrug-resistant Gram-negative pathogens” (Nature Communications, 2022).
In brackets after ≈: the same amount, converted by molar mass. Several values for one entry are separate records, joined by “and”; a condition that tells them apart may be missing. Identical values can stand only once. Residues, ends and D or L forms follow the SMILES beside them.

Assays:
Swiss mice, kidney = experiment: Nephrotoxicity in mice (kidney histopathology); format: in vivo, mouse; details: for Kidney histopathology (SQS Score): 72 mg/kg/d subcutaneously in six divided doses every 2 h, n = 3; for Kidney histopathology, mice with the SQS score: mouse, in vivo
Method in brief: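 Female Swiss mice (7-week-old, 22–28 g) received lipopeptides in saline either s.c. at 12 mg/kg ×6 every 2 h (total 72 mg/kg, n = 3) or i.p. at 20 or 25 mg/kg ×6 every 2 h (total 120 mg/kg, n = 6; 150 mg/kg, n = 3). Right kidney collected 20 h after last dose, fixed in 10% buffered formalin (pH 7.4), histology scored blinded.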

A. baumannii ATCC 19606 = format: cell-based, Acinetobacter baumannii; details: ATCC 19606
Method in brief: (§1)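 MICs were determined by broth microdilution in cation-adjusted Mueller–Hinton broth (CaMHB), with clinical isolates tested alongside ATCC strains.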

A. baumannii FADDI-AB034 = format: cell-based, Acinetobacter baumannii; details: FADDI-AB034
Method in brief: (§2)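 Compounds were serially diluted in CaMHB, bacteria were added, and the lowest inhibitory concentration was recorded after broth microdilution testing.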

A. baumannii FADDI-AB030 = format: cell-based, Acinetobacter baumannii; details: FADDI-AB030
Method in brief: as §2

P. aeruginosa ATCC 27853 [1] = experiment: Neutropenic mouse bloodstream infection model; format: in vivo; details: single IV dose 4 mg/kg; for Log10 CFU/mL blood at 4 h, Mean / Δlog10 CFU/mL blood (mean) / Log10 CFU/mL blood at 4 h, single mouse: 4 h; for Δlog10 CFU/mL blood (mean): treated minus control, mean of replicates; for Δlog10 CFU/mL blood (mean) / Log10 CFU/mL blood at 4 h, single mouse / Delta Log10 CFU/mL blood at 4 h, single mouse: 4 mg/kg; for Delta Log10 CFU/mL blood at 4 h, single mouse: treated mouse minus mean of vehicle mice
Method in brief: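 Female Swiss mice made neutropenic with cyclophosphamide (150 mg/kg day −4, 100 mg/kg day −1), infected IV with 50 µL of 4 × 10^8 CFU/mL. Lipopeptide 4 mg/kg (free base) IV at 2 h post-inoculation, n = 3. Efficacy = Δlog10 CFU/mL blood versus saline at 4 h post-dose.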

P. aeruginosa ATCC 27853 [2] = format: cell-based, Pseudomonas aeruginosa; details: ATCC 27853
Method in brief: as §1

[3] = tested on: P. aeruginosa FADDI-PA025; format: cell-based, Pseudomonas aeruginosa; details: FADDI-PA025
Method in brief: as §2

[4] = tested on: P. aeruginosa FADDI-PA038; format: cell-based, Pseudomonas aeruginosa; details: FADDI-PA038
Method in brief: as §2

[5] = tested on: K. pneumoniae FADDI-KP065; format: cell-based, Klebsiella pneumoniae; details: FADDI-KP065
Method in brief: as §2

[6] = tested on: K. pneumoniae FADDI-KP032; format: cell-based, Klebsiella pneumoniae; details: FADDI-KP032
Method in brief: as §2

| SMILES | Kidney histopathology (SQS Score) (Swiss mice, kidney) | Kidney histopathology, mice with the SQS score (Swiss mice, kidney) | MIC A. baumannii ATCC 19606 (A. baumannii ATCC 19606) [µg/mL] | MIC A. baumannii FADDI-AB034 (A. baumannii FADDI-AB034) [µg/mL] | MIC A. baumannii FADDI-AB030 (A. baumannii FADDI-AB030) [µg/mL] | Log10 CFU/mL blood at 4 h, Mean (P. aeruginosa ATCC 27853 [1]) [Log10 CFU/mL blood] | Δlog10 CFU/mL blood (mean) (P. aeruginosa ATCC 27853 [1]) [log10 CFU/mL blood] | Log10 CFU/mL blood at 4 h, single mouse (P. aeruginosa ATCC 27853 [1]) | Delta Log10 CFU/mL blood at 4 h, single mouse (P. aeruginosa ATCC 27853 [1]) | MIC P. aeruginosa ATCC 27853 (P. aeruginosa ATCC 27853 [2]) [µg/mL] | MIC P. aeruginosa FADDI-PA025 [3] [µg/mL] | MIC P. aeruginosa FADDI-PA038 [4] [µg/mL] | MIC K. pneumoniae FADDI-KP065 [5] [µg/mL] | MIC K. pneumoniae FADDI-KP032 [6] [µg/mL] |
| --- | --- | --- | --- | --- | --- | --- | --- | --- | --- | --- | --- | --- | --- | --- |
| CCCCCCCC(=O)N[C@@H](CCN)C(=O)N[C@H](C(=O)N[C@@H](CCN)C(=O)N[C@H]1CCNC(=O)[C@H]([C@@H](C)O)NC(=O)[C@H](CCN)NC(=O)[C@H](CCN)NC(=O)[C@H](C)NC(=O)[C@@H](CC(C)C)NC(=O)[C@H](CCN)NC1=O)[C@@H](C)O [Lipopeptide F124] (HELM PEPTIDE1{[CCCCCCCC(=O)[*:2]].[Dab].T.[Dab].[Dab].[Dab].[dL].A.[Dab].[Dab].T}$PEPTIDE1,PEPTIDE1,5:R3-11:R2$$$V2.0) | 0 (SQS 0 = no significant change (overall score, <1)) | 3/3 | 1 (≈ 0.898 µM) | 0.5 (≈ 0.449 µM) | 1 (≈ 0.898 µM) | 4.53 | −2.92 | 4.71 Log10 CFU/mL blood and 4.61 Log10 CFU/mL blood and 4.26 Log10 CFU/mL blood | -2.74 Log10 CFU/mL blood and -2.83 Log10 CFU/mL blood and -3.19 Log10 CFU/mL blood | 0.5 (≈ 0.449 µM) | >32 | 0.5 (≈ 0.449 µM) | <0.125 | 0.25 (≈ 0.225 µM) |
| CCCCCCCCC(=O)N[C@@H](CCN)C(=O)N[C@H](C(=O)N[C@@H](CN)C(=O)N[C@H]1CCNC(=O)[C@H]([C@@H](C)O)NC(=O)[C@H](CCN)NC(=O)[C@H](CCN)NC(=O)[C@H](CC)NC(=O)[C@@H](CC(C)C)NC(=O)[C@H](CCN)NC1=O)[C@@H](C)O [Lipopeptide F314] (HELM PEPTIDE1{[CCCCCCCCC(=O)[*:2]].[Dab].T.[NC[C@H](N[*:1])C(=O)[*:2]].[Dab].[Dab].[dL].[Abu].[Dab].[Dab].T}$PEPTIDE1,PEPTIDE1,5:R3-11:R2$$$V2.0) | +1 (SQS + 1 = mild damage (overall score, 1 to <15)) | 3/3 | 0.5 (≈ 0.443 µM) | 2 (≈ 1.77 µM) | 0.5 (≈ 0.443 µM) | 4.33 | −2.82 | 4.52 Log10 CFU/mL blood and 4.04 Log10 CFU/mL blood and 4.42 Log10 CFU/mL blood | -2.63 Log10 CFU/mL blood and -3.10 Log10 CFU/mL blood and -2.72 Log10 CFU/mL blood | 1 (≈ 0.887 µM) | >32 | 2 (≈ 1.77 µM) | 0.25 (≈ 0.222 µM) | <0.125 |
| CCCCCCCC(=O)N[C@@H](CCN)C(=O)N[C@H](C(=O)N[C@@H](CN)C(=O)N[C@H]1CCNC(=O)[C@H]([C@@H](C)O)NC(=O)[C@H](CCN)NC(=O)[C@H](CCN)NC(=O)[C@H](C)NC(=O)[C@@H](CC(C)C)NC(=O)[C@H](CCN)NC1=O)[C@@H](C)O [Lipopeptide F271] (HELM PEPTIDE1{[CCCCCCCC(=O)[*:2]].[Dab].T.[NC[C@H](N[*:1])C(=O)[*:2]].[Dab].[Dab].[dL].A.[Dab].[Dab].T}$PEPTIDE1,PEPTIDE1,5:R3-11:R2$$$V2.0) | 0 (SQS 0 = no significant change (overall score, <1)) | 3/3 | 0.5 (≈ 0.455 µM) | 0.25 (≈ 0.227 µM) | 0.25 (≈ 0.227 µM) | 5.18 | −2.27 | 5.01 Log10 CFU/mL blood and 5.37 Log10 CFU/mL blood and 5.15 Log10 CFU/mL blood | -2.43 Log10 CFU/mL blood and -2.08 Log10 CFU/mL blood and -2.30 Log10 CFU/mL blood | 0.5 (≈ 0.455 µM) | 16 (≈ 14.6 µM) | 1 (≈ 0.91 µM) | <0.125 | <0.125 |
